Data set [1] concerns human skin tissue three dimensional model (TESTSKIN LSD-d).
Method: The test substances were each dissolved in Dulbecco's PBS (−) to give a 1% by mass solution of the test substance. The test substance solutions were placed, each 50 μL, to a tissue surface of human skin tissue three dimensional model (TESTSKIN™ LSD-d, available from TOYOBO CO., LTD.), and were incubated at 37° C. in a 5% CO2 atmosphere for 2 hours. Thereafter the test substance solutions were aspirated out, and the skin models were further incubated at 37° C. in a 5% CO2 atmosphere for 2, 6 or 12 hours. The skin models were sampled after the lapse of each of the incubation times. The skin models sampled at the incubation times were washed with Dulbecco's PBS (−), and the tissue surfaces on which the test substances had been placed were punched out with a punch 6 mm in diameter. The skin models were then homogenated in a HEPES buffer solution (pH: 7.2), and were quantitatively analyzed using a high performance liquid chromatography to determine the carnitine content in the skin model.
From the analysis results, the carnitine contents in the skin models (unit: nmol/mg skin protein) were obtained for the test substances at each of the incubation times.
The test system of a further data set is Mouse 3T3 adipocytes. Briefly: Measurement of fat metabolic activity for mouse 3T3 adipocytes (free glycerol in culture medium). Format: cell-based. The settings on record: 250 μM test substance, medium recovered after 24 hours; control (none) = 100. How it is done: The five carnitine and carnitine derivatives 1) to 5) used in Example 1 were tested. The fat metabolic activity was measured and compared by quantitative determination of glycerol in the culture medium based on the fact that metabolism of the fat accumulated in adipocytes releases glycerol and free fatty acid to the culture medium.
Mouse 3T3 cells as the preadipocytes were disseminated on a 10 cm-diameter dish such that 1×10^4 cells were on the dish. […] Thereafter, the culture medium was replaced with a 10% FCS-containing DMEM culture medium that contained […] of dexamethasone, 0.5 mM of isobutylmethylxanthine and 10 μg/ml of insulin, and incubation was continued for another 2 days. Subsequently, the culture medium was replaced again with a 10% FCS-containing ordinary DMEM culture medium, and incubation was performed for another week, resulting in differentiation of the preadipocytes into adipocytes. Next, the culture medium was replaced with an ordinary culture medium that contained 250 μM of the carnitine or carnitine derivative of the five substances 1) to 5) used in Example 1, and the culture medium was recovered after 24 hours. The cells were washed with Dulbecco's PBS (−) and were recovered. Cells incubated in the absence of the test substances were used as the control. The glycerol content in the culture medium was quantitatively determined using Glycerol Test E Wako (Wako Pure Chemical Industries, Ltd.).
The fat metabolic activity for mouse 3T3 adipocytes was determined based on the free glycerol content in the same manner as in Example 2, except that the two carnitine and carnitine derivative 1) and 6) used in Example 4 were tested.
The fat metabolic activity for mouse 3T3 adipocytes was determined based on the free glycerol content in the same manner as in Example 2, except that the three carnitine and carnitine derivatives 1), 7) and 8) used in Example 7 were tested.

Data set [2] deals with skin together with subcutaneous fat tissues. Put plainly: Subcutaneous fat breakdown test (rat abdominal skin with subcutaneous fat in Franz diffusion cell). The settings on record: lower cell PBS (−), 37° C., average of three measurements, control (none) 20. On the procedure: A male Wister rat, 10 weeks old, was shaved on the abdomen, and the skin was removed together with subcutaneous fat tissues and was placed in a Franz diffusion cell. An upper cell on the skin surface was filled with a buffer solution containing the Example 1 test substance, and a lower cell was filled with Dulbecco's PBS (−). The diffusion cell was held at 37° C. and was allowed to stand for 8 or 16 hours. After the lapse of each of the standing times, PBS (−) was withdrawn from the lower cell. The content of free glycerol resulting from the fat breakdown was measured with use of Glycerol Test E Wako. The results are averages of three measurements.
The free glycerol contents were measured in the same manner as in Example 3, except that the two carnitine and carnitine derivative 1) and 6) used in Example 4 were tested. The results are averages of three measurements.
The free glycerol contents were measured in the same manner as in Example 3, except that the three carnitine and carnitine derivatives 1), 7) and 8) used in Example 7 were tested. The results are averages of three measurements.

`CCCCCC(=O)O[C@H](CC(=O)O)C[N+](C)(C)C.[Cl-]` [Test substance 2), Hexanoyl-L-carnitine hydrochloride]: in data set [1], the “carnitine content in the skin model, After 2-hour incubation” value came to 7 nmol/mg skin protein; the “carnitine content in the skin model, After 6-hour incubation” value was 14 nmol/mg skin protein; the “carnitine content in the skin model, After 12-hour incubation” value came to 21 nmol/mg skin protein. The “Free glycerol content (% relative to the control)” value in the data set with Mouse 3T3 adipocytes is given as 155 % relative to the control. Also, in data set [2], the “Free glycerol, After 8 hours” value was found to be 116 µmol/mL and the “Free glycerol, After 16 hours” value turned out to be 138 µmol/mL.

As for `CCCCCCCCCCCCCC(=O)O[C@H](CC(=O)O)C[N+](C)(C)C.[Cl-]` [Test substance 3), Tetradecanoyl-L-carnitine hydrochloride], in data set [1], the “carnitine content in the skin model, After 2-hour incubation” value came out at 6 nmol/mg skin protein; the “carnitine content in the skin model, After 6-hour incubation” value was 12 nmol/mg skin protein; the “carnitine content in the skin model, After 12-hour incubation” value stood at 22 nmol/mg skin protein. Further, the “Free glycerol content (% relative to the control)” value in the data set with Mouse 3T3 adipocytes is on record as 168 % relative to the control. In addition, in data set [2], the “Free glycerol, After 8 hours” value turned out to be 112 µmol/mL and the “Free glycerol, After 16 hours” value worked out at 146 µmol/mL.

Consider `CCCCCCCCCCCCCCCC(=O)O[C@H](CC(=O)O)C[N+](C)(C)C.[Cl-]` [Test substance 4), Hexadecanoyl-L-carnitine hydrochloride], for which, in data set [1], the “carnitine content in the skin model, After 2-hour incubation” value was found to be 6 nmol/mg skin protein; the “carnitine content in the skin model, After 6-hour incubation” value was 10 nmol/mg skin protein; the “carnitine content in the skin model, After 12-hour incubation” value is on record as 23 nmol/mg skin protein. In the data set on Mouse 3T3 adipocytes, the “Free glycerol content (% relative to the control)” value is 180 % relative to the control. In data set [2], the “Free glycerol, After 8 hours” value stood at 125 µmol/mL and the “Free glycerol, After 16 hours” value stood at 170 µmol/mL.

For `CCCCCCCCCCCCCCCCCC(=O)O[C@H](CC(=O)O)C[N+](C)(C)C.[Cl-]` [Test substance 5), Octadecanoyl-L-carnitine hydrochloride], in data set [1], the “carnitine content in the skin model, After 2-hour incubation” value is listed as 5 nmol/mg skin protein; the “carnitine content in the skin model, After 6-hour incubation” value is listed as 10 nmol/mg skin protein; the “carnitine content in the skin model, After 12-hour incubation” value came out at 25 nmol/mg skin protein. Moreover, in the data set with Mouse 3T3 adipocytes, the “Free glycerol content (% relative to the control)” value is 176 % relative to the control. Further, in data set [2], the “Free glycerol, After 8 hours” value worked out at 117 µmol/mL and the “Free glycerol, After 16 hours” value amounted to 158 µmol/mL.

(Values after patent US20070232698A1, “Slimming Skin External Preparation and Cosmetic Containing the Same” (priority 2004, published 2007).)
